Data on 5 molecules can be found in BindingDB's records for doi:10.1021/jm00168a025 (State University of New York, 1990).

Where only a bound is given, the exact number is not on record here.

The term IC50 denotes the concentration at which inhibition is half-maximal. A lower IC50 goes with greater potency in that assay.

The target in this assay is Squalene monooxygenase (Sus scrofa). As to the kind of experiment: Inhibition of pig liver squalene epoxidase.

As for `CC(C)=CCC/C(C)=C/CC/C(C)=C/CC/C=C(\C)CC/C=C(\C)CC/C=C(\C)CCCO`, the IC50 was above 400 µM.
For the molecule `CC(C)=CCC/C(C)=C/CC/C(C)=C/CCCO`, the IC50 is above 400 µM.
For the molecule `CC(C)=CCC/C(C)=C/CC/C(C)=C/CC/C=C(\C)CC/C=C(\C)CCCCO`, half-maximal inhibition (IC50) required 4 µM.
`CC(C)=CCC/C(C)=C/CC/C(C)=C/CC/C=C(\C)CC/C=C(\C)CCCO`: half-maximal inhibition (IC50) required 4 µM.
`CC(C)=CCC/C(C)=C/CC/C(C)=C/CC/C=C(\C)CCCO`: the IC50 was 100 µM.
